Values joined by “and” are separate entries in the source; they are usually repeats but may differ in a detail not shown here. Equal values may be shown once.
Tests used:
[1] = tested on: Mycoplasma pneumoniae strain M129 (ATCC 29342); assay: Time-kill curves; format: cell-based; design: M. pneumoniae count in time-kill curve: unit not given here
Outline: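 Strain grown at 37 °C, 5% CO2 in modified SP-4 broth (pH 7.4, 20% FBS). Cultures incubated 72 h, sampled every 12 h, 10-fold serially diluted and plated on SP-4 agar; colonies counted after 7 d. Three repeats.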

[2] = tested on: Mycoplasma pneumoniae-infected mice (lung tissue); assay: Histopathological assessment of lung tissue (HPS, response and recovery rates) in M. pneumoniae-infected mice; format: in vivo, BALB/c mice; design: HPS value (mean) / HPS: scale not given here; conditions: for HPS: individual mice, listed as TiamulinIM
Description: Adult BALB/c mice (20–22 g) were divided into a control group, a positive group, and compound 16C groups at low (20 mg/kg), medium (40 mg/kg), and high-dose (80 mg/kg) levels and oral and intramuscular tiamulin treatment groups (40 mg/kg). We formulated the above dose range based on the dose at which tiamulin was approved for injection (10–20 mg/kg) and the dose previously reported (45 mg/kg) ([EMA, 1999]; [Xiao et al., 2016]). In summary, we selected similar doses for compound 16C in vivo study. 40 mg/kg was used as an intermediate value, one-half of it as a low dose, and two times of it as a high dose. To prepare the challenge solution, logarithmic phase culture suspensions were centrifuged at 1700 g for 10 min, and the pellets were suspended in sterile PBS to obtain 1 × 10^9 CFU/mL. Before the challenge, mice were anesthetized with tribromoethanol (250 mg/kg, IP). Mice in the control groups were intratracheally inoculated with sterile PBS, whereas mice in the other groups were intratracheally challenged with 50 μL (1 × 10^9 CFU/mL) M. pneumoniae suspension once a day for 3 days. Compound 16C and tiamulin (tiamulin-IM group) dissolved using the method mentioned in pharmacokinetic studies, and the tiamulin fumarate soluble powder was dissolved in ddH2O for oral administration. After the final challenge, antibiotics were administered at low, medium, and high-dose levels (see above) at 10 a.m. and 10 p.m. daily for 4 consecutive days. Normal saline containing 5% DMSO and 5% Tween-80 was administered as control and positive groups by thigh intramuscular injection. To compare the efficacy of compound 16C and tiamulin under the same route of administration, we used the original tiamulin for intramuscular administration in the same formulation. On the other hand, tiamulin fumarate soluble powder, approved for oral administration to treat animal mycoplasma diseases in China, was administered to mice by gavage. Based on a clinical study of lefamulin in community-acquired bacterial pneumonia (CABP), subjects were administered twice a day and the 96 ± 24 h of starting treatment was an essential point for early clinical response (ECR) ([Paukner et al., 2022]). We therefore stopped treatment at 96 h and sampled at 192 h to explore whether the disease worsened after cessation of treatment. Bronchoalveolar lavage fluid (BALF) and lungs were collected at 0, 96, 192 h (Samples of 0 h were collected before starting treatment, and mice were fed ad libitum without drug treatment during 96–192 h) after the first dose, BALF for cytokine and cytological analysis and lung for histopathological evaluation.
Lung tissues were collected at 0, 96, and 192 h following drug administration. Lungs were collected from 6 mice in each group at 96 h and 13–15 mice in each group at 192 h. In addition, the lungs of 8 untreated infected mice were taken at 0 h as initial controls. Lung tissues were fixed in 4% paraformaldehyde, and whole-mount sections of paraffin-embedded lungs were stained with hematoxylin and eosin (H&E). The histopathologic score (HPS) was determined according to published protocols by a single pathologist who was unaware of the treatment status and groups of the animals ([Cimolai et al., 1992]). The HPS was based on individual grading of peribronchiolar/bronchial infiltrate, bronchiolar/bronchial luminal exudate, perivascular infiltrate, and parenchymal pneumoniae.

[3] = M. pneumoniae-infected mice, IM, n=13-15
[4] = M. pneumoniae-infected mice, PO, n=13-15
[5] = tiamulin 40 mg/kg IM, from HPS at 192 h

C=C[C@]1(C)C[C@@H](OC(=O)CSCCN(CC)CC)[C@]2(C)[C@H](C)CC[C@]3(CCC(=O)[C@H]32)[C@@H](C)[C@@H]1O [tiamulin, Tiamulin, reference compound]
M. pneumoniae count in time-kill curve ([1]; 1×MIC, time 0): 6.339 | M. pneumoniae count in time-kill curve ([1]; 1×MIC, time 12): 5.698 | M. pneumoniae count in time-kill curve ([1]; 1×MIC, time 24): 6.253 | M. pneumoniae count in time-kill curve ([1]; 1×MIC, time 36): 5.423 | M. pneumoniae count in time-kill curve ([1]; 1×MIC, time 48): 4.896 | M. pneumoniae count in time-kill curve ([1]; 1×MIC, time 60): 5.29 | M. pneumoniae count in time-kill curve ([1]; 1×MIC, time 72): 4.787 | M. pneumoniae count in time-kill curve ([1]; 2×MIC, time 0): 6.339 | M. pneumoniae count in time-kill curve ([1]; 2×MIC, time 12): 6.4123 | M. pneumoniae count in time-kill curve ([1]; 2×MIC, time 24): 6.433 | M. pneumoniae count in time-kill curve ([1]; 2×MIC, time 36): 4.77 | M. pneumoniae count in time-kill curve ([1]; 2×MIC, time 48): 4.196 | M. pneumoniae count in time-kill curve ([1]; 2×MIC, time 60): 3.827 | M. pneumoniae count in time-kill curve ([1]; 2×MIC, time 72): 3.91 | M. pneumoniae count in time-kill curve ([1]; 4×MIC, time 0): 6.339 | M. pneumoniae count in time-kill curve ([1]; 4×MIC, time 12): 6.61 | M. pneumoniae count in time-kill curve ([1]; 4×MIC, time 24): 6.296 | M. pneumoniae count in time-kill curve ([1]; 4×MIC, time 36): 3.841 | M. pneumoniae count in time-kill curve ([1]; 4×MIC, time 48): 3.684 | M. pneumoniae count in time-kill curve ([1]; 4×MIC, time 60): 3.889 | M. pneumoniae count in time-kill curve ([1]; 4×MIC, time 72): 3.638 | M. pneumoniae count in time-kill curve ([1]; 8×MIC, time 0): 6.339 | M. pneumoniae count in time-kill curve ([1]; 8×MIC, time 12): 6.119 | M. pneumoniae count in time-kill curve ([1]; 8×MIC, time 24): 6.148 | M. pneumoniae count in time-kill curve ([1]; 8×MIC, time 36): 3.952 | M. pneumoniae count in time-kill curve ([1]; 8×MIC, time 48): 3.772 | M. pneumoniae count in time-kill curve ([1]; 8×MIC, time 60): 3.839 | M. pneumoniae count in time-kill curve ([1]; 8×MIC, time 72): 3.776 | M. pneumoniae count in time-kill curve ([1]; 16×MIC, time 0): 6.339 | M. pneumoniae count in time-kill curve ([1]; 16×MIC, time 12): 6.238 | M. pneumoniae count in time-kill curve ([1]; 16×MIC, time 24): 5.56 | M. pneumoniae count in time-kill curve ([1]; 16×MIC, time 36): 4 | M. pneumoniae count in time-kill curve ([1]; 16×MIC, time 48): 3.739 | M. pneumoniae count in time-kill curve ([1]; 16×MIC, time 60): 3.621 | M. pneumoniae count in time-kill curve ([1]; 16×MIC, time 72): 3.801 | M. pneumoniae count in time-kill curve ([1]; 32×MIC, time 0): 6.339 | M. pneumoniae count in time-kill curve ([1]; 32×MIC, time 12): 6.569 | M. pneumoniae count in time-kill curve ([1]; 32×MIC, time 24): 5.262 | M. pneumoniae count in time-kill curve ([1]; 32×MIC, time 36): 3.833 | M. pneumoniae count in time-kill curve ([1]; 32×MIC, time 48): 3.266 | M. pneumoniae count in time-kill curve ([1]; 32×MIC, time 60): 3.249 | M. pneumoniae count in time-kill curve ([1]; 32×MIC, time 72): 3.425 | M. pneumoniae count in time-kill curve ([1]; 64×MIC, time 0): 6.339 | M. pneumoniae count in time-kill curve ([1]; 64×MIC, time 12): 6.625 | M. pneumoniae count in time-kill curve ([1]; 64×MIC, time 24): 4.23 | M. pneumoniae count in time-kill curve ([1]; 64×MIC, time 36): 3.61 | M. pneumoniae count in time-kill curve ([1]; 64×MIC, time 48): 3.065 | M. pneumoniae count in time-kill curve ([1]; 64×MIC, time 60): 3.16 | M. pneumoniae count in time-kill curve ([1]; 64×MIC, time 72): 3.29 | concentration at which bactericidal effect was achieved ([1]; static time-kill, 72 h): 64 × MIC | Recovery [2, 3]: 35.7% | Response [2, 3]: 100% | Recovery [2, 4]: 6.67% | Response [2, 4]: 86.67% | HPS value (mean) ([2]; tiamulin 40 mg/kg IM, 96 h): 1 | HPS ([2]; tiamulin 40 mg/kg IM, 96h): 2.5 and 0.5 and 1 | HPS ([2]; tiamulin 40 mg/kg IM, 192h): 0.5 and 0 and 1 | Recovery [2, 5]: 35.7% | Response [2, 5]: 100%
